Laboratory results reported in ChEMBL document CHEMBL1772987, “Development of amidine-based sphingosine kinase 1 nanomolar inhibitors and reduction of sphingosine 1-phosphate in human leukemia cells” (J Med Chem, 2011).

How the values were obtained:
[1] = target: T1, Sphingosine kinase 2 (Mus musculus, UniProt Q9JIA7); test: Inhibition of mouse recombinant SPHK2 expressed in baculovirus-infected Sf9 cells
T1 sequence (Q9JIA7 whole entry): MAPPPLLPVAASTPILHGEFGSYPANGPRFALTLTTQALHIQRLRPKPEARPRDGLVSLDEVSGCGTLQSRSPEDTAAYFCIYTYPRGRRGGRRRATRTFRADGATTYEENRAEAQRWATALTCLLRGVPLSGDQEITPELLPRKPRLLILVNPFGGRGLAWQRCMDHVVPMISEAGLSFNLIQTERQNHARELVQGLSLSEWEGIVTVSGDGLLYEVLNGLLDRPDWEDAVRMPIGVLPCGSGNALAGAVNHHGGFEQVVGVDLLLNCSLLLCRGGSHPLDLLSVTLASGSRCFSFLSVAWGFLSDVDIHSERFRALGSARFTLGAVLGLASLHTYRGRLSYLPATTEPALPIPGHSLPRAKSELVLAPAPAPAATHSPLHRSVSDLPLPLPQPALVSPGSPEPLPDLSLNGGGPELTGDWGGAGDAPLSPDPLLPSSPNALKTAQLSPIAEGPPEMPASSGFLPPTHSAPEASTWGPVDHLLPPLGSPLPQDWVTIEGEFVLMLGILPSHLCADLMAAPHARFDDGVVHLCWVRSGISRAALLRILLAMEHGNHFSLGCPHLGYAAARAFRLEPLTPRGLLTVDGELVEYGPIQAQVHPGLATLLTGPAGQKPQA

[2] = target: T2, Sphingosine kinase 1 (Homo sapiens, UniProt Q9NYA1); test: biochemical
T2 sequence (Q9NYA1 whole entry): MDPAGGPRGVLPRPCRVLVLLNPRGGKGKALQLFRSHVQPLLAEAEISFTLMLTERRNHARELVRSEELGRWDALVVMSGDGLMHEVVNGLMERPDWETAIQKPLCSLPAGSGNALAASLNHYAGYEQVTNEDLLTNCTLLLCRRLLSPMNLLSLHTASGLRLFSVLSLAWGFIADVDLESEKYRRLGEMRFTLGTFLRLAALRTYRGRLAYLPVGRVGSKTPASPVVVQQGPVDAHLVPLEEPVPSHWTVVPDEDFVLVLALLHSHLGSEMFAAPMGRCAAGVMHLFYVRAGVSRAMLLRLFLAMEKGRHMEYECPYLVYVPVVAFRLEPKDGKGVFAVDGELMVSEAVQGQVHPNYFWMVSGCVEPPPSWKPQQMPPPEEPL
Description: (§1) Inhibition of human recombinant SPHK1 expressed in baculovirus-infected Sf9 cells

[3] = target: T2, Sphingosine kinase 1
Description: as §1

[4] = target: Sphingosine kinase 2 (Mus musculus) (UniProt Q9JIA7); test: Inhibition of SPHK2

Ki [1] [µM]	Ki [2] [µM]	Ki [3] [µM]	Ki [4] [µM]	Compound
33				Oc1ccc(Nc2nc(-c3ccc(Cl)cc3)cs2)cc1
7.5	6			CCCCCCCCCCCCCCNC(=O)C1(C(=N)N)CC1
> 100	5.4			CCCCCCCCCCCCCCCCNC(=O)C1(C(=N)N)CC1
> 100	9			CCCCCCCCCCCCCCCCCCNC(=O)C1(C(=N)N)CC1
38	5			N=C(N)C1(C(=O)Nc2ccc(CCCCCCCOCc3ccccc3)cc2)CC1
> 10	0.5			N=C(N)C1(C(=O)Nc2ccc(CCCCCCCCCc3ccccc3)cc2)CC1
> 10	1.3			N=C(N)C1(C(=O)Nc2ccc(CCCCCCCCc3ccccc3)cc2)CC1
12	0.39			N=C(N)C1(C(=O)Nc2ccc(CCCCCCOCC3CCCCC3)cc2)CC1
7	0.24			N=C(N)C1(C(=O)Nc2ccc(CCCCCCCOCC3CCCCC3)cc2)CC1
> 20	0.8			N=C(N)C1(C(=O)Nc2ccc(CCCCCCCCOCC3CCCCC3)cc2)CC1
4.6	1.5			N=C(N)C1(C(=O)Nc2ccc(CCCCCCCOCC34CC5CC(CC(C5)C3)C4)cc2)CC1
26		0.11		N=C(N)C1(C(=O)NCCCCCCCCCCOCC2CCCCC2)CC1
25	0.45			N=C(N)C1(C(=O)NCCCCCCCCCCOCC2CCCC2)CC1
15	0.13			N=C(N)C1(NC(=O)c2ccc(CCCCCCCOCC3CCCCC3)cc2)CC1
18	0.17			N=C(N)C1(NC(=O)c2ccc(CCCCCCCOCC3CCCC3)cc2)CC1
40	1.3			CCCCOCCCCCCCc1ccc(C(=O)NC2(C(=N)N)CC2)cc1
10	4			CCCCCCCCCCCOc1ccc(C(=O)NC2(C(=N)N)CC2)cc1
12	0.095			N=C(N)C1(NC(=O)CCCCCCCCCCOCC2CCCCC2)CC1
5	1.6			CCCCCCCCCCCCc1ccc(C(=O)NC2(C(=N)N)CCC2)cc1
3		0.075		N=C(N)[C@@H]1CCCN1C(=O)c1ccc(CCCCCCCOCC2CCCCC2)cc1
5.3	0.099			N=C(N)[C@@H]1CCCN1C(=O)c1ccc(CCCCCCCCCC2CCCCC2)cc1
8	0.13			N=C(N)[C@@H]1CCCN1C(=O)CCCCCCCCCCOCC1CCCCC1
20	2			N=C(N)[C@@H]1CCCN1C(=O)c1ccc(-c2nc(-c3cccc(CCC4CCCCC4)c3)c[nH]2)cc1
4.2		0.047		N=C(N)[C@@H]1CCCN1C(=O)c1ccc(-c2nc(-c3cccc(CCC4CCCCC4)c3)co2)cc1
6	0.11			N=C(N)[C@@H]1CCCN1C(=O)c1ccc(-c2nc(-c3cccc(CCC4CCCCC4)c3)cs2)cc1
31			31	CCCCCCCCc1ccc(NC(=O)[C@@H](N)CCO)cc1
